{"source": "patent US20110217293A1", "about": "“Uses of morelloflavone” (priority 2008, published 2011)", "key": {"[1]": {"system": "ERK", "assay": "Western blot, phosphorylation of ERK", "format": "cell-based, mouse", "details": "low concentrations (0.1 & 1 mM)", "method": "(§1) To assess the phosphorlyation status of ERK, […] of whole cell lysates was loaded onto SDS-PAGE, and Western blot analysis was done using anti-p-ERK (Santa Cruz; E-4; sc-7383) and anti-ERK (Santa Cruz; K-23; sc-94) antibodies. To detect active RhoA, Rac1 and Cdc42, generated GST-tagged RhoA binding domain of Rhotekin protein (GST-Rhotekin-RBD) and GST-tagged p21-binding domain of p21-activated kinase 1 (PAK1)(GST-PAK1-PBD) were first generated. Briefly, E. coli BL21 cells transformed with pGEX4T-PAK1-PBD or pGEX4T-Rh,otekin-RBD were grown at 37° C. and expression of recombinant protein was induced by addition of 0.1 mM IPTG for 3 hours. Cells were resuspended in lysis buffer (50 mM Tris-HCl, pH 8.0, 10% glycerol, 20% sucrose, 2 mM DTT, 1 mg/ml leupeptin, 1 mg/ml pepstatin, and 1 mg/ml aprotinin), sonicated, and centrifuged at 4° C. for 30 min at 45,000 g. The supernatant was incubated with glutathione sepharose 4B beads (GE-Amersham, Piscataway, N.J.) for 1 hour at 4° C., and then washed 3 times in lysis buffer. Using these GST-proteins, GTPase activation assays were performed as described."}, "[2]": {"assay": "Serum morelloflavone level by HPLC", "format": "in vivo, mouse", "details": "treated apoE−/− mice, oral 0.15% w/w diet, at sacrifice", "method": "Measurements were performed at a magnification of 200 using a Scion Image analysis computer program (Frederick, Md.). Data were obtained from the first 2 levels where endothelial denudation occurred. For each artery, the luminal area, area inside the internal elastic lamina (IELA), and the area encircled by external elastic lamina-IELA were measured. The intimal area (IA) was calculated as the IELA minus luminal area. For the determination of serum morelloflavone levels, animal sera were first digested by proteinase K in the presence of 0.01% SDS. Morelloflavone was then extracted into ethyl acetate and lyophilized.\nThe quantification of morelloflavone was performed by HPLC as described with following modifications. The pure morelloflavone was diluted to varying concentrations ([…]), aliquoted into multiple tubes, and lyophilized. The samples were dissolved in […] of 25% acetonitrile/0.55% acetic acid 10 of which […] were injected into a Vydac C-18 reversed phase HPLC column (Grace Davison Discovery Sciences, Deerfield, Ill.) in an Agilent 1100 HPLC system (San Jose, Calif.). […] The limit of detection (LOD) is defined as the concentration of morelloflavone that yielded a signal to noise of 2:1, and was calculated at 1.06 mM, from the 20 mM standard peak (signal to noise=37.6:1). […]"}, "[3]": {"assay": "Body weight in atherosclerosis study", "format": "in vivo, mouse", "method": "Twenty four (24) 8 week old Ldlr^−/−Apobec1^−/− mice were randomly assigned to either control group (normal rodent chow, Lab Diet, Richmond, Ind., N=12) or morelloflavone group (normal rodent chow supplemented with 0.003% (w/w) morelloflavone, N=12). The 0.003% (w/w) morelloflavone corresponds to approximately 4 mg/kg morelloflavone for 30 gram animals that consume 4 grams of chow. Animals were housed individually in an air-conditioned room with 12-h light/dark cycle with access to food and water. Body weight of these mice was monitored monthly. After 8 months, animals were sacrificed for analyses of atherosclerosis. Just prior to the sacrifice, blood was sampled from the heart and collected into micro-centrifuge tubes containing EDTA. The entire aortae were excised. All animal experimentation protocols were performed according to the protocol approved by the Institutional Animal Care and Use Committee (IACUC) of the University of Texas Health Science Center at Houston, in accordance with the National Institutes of Health guidelines."}, "[4]": {"system": "vascular smooth muscle cells", "assay": "Invasion assay (modified Boyden chamber)", "format": "cell-based, mouse", "details": "1 mM morelloflavone, 8-hour incubation", "method": "Mouse vascular smooth muscle cells, isolated as described (13), were maintained in 231 media (Cascade Biologics, Portland, Oreg.) supplemented with SMGS (Cascade Biologics) in a humidified incubator at 37° C. with 5% CO2. Cells from passages 4-9 were used in all experiments. All experiments were performed in subconfluent, unsynchronized cells growing in SMGS except for the lamellipodium formation assay.\nThe lower chambers of the ChemoTx® Disposable Chemotaxis System (NeuroProbe, Gaithersburg, Md.) were filled with […] of SMGS diluted in 231 medium at the appropriate concentrations (0-10%). A filter membrane ([…] pore size) was positioned over the lower wells, and 1×10^4 vascular smooth muscle cells suspended in […] 231 medium (without morelloflavone) were placed on the test sites within circular hydrophobic masks on the upper side of the filter plate (n=5 each). […] After additional 8-hour incubation, cells on the upper surface of the membrane, i.e., cells that had not migrated, were scraped off by Q-tips, and cells that had migrated to the lower surface were fixed and stained by hematoxylin solution and counted. Migrated cell 6 numbers were calculated as the number of cells migrated per 8.0 mm^2 test site surface area."}, "[5]": {"system": "Rac1", "assay": "GTPase activation assay, Rac1", "format": "cell-based, mouse", "details": "up to 10 mM", "method": "as §1, with “described. […]” for “described.”"}}, "note": "Where “and” joins values, the source holds several entries; their conditions need not be identical. Equal values may be shown once. Entries after “also recorded” stand apart in the source; their conditions may differ.", "data": [{"molecule": "O=C1c2c(O)cc(O)cc2O[C@H](c2ccc(O)cc2)[C@H]1c1c(O)cc(O)c2c(=O)cc(-c3ccc(O)c(O)c3)oc12", "note": "[morelloflavone, 5,7, 4′, 5″, 7″, 3″, 4″-heptahydroxy-[3,8″]-flavonylflavanone]", "values": [{"measurement": "phosphorylation of ERK", "setting": "[1]", "result": "inhibited; also recorded: robustly decreased phosphorylation; also recorded: blocks"}, {"measurement": "serum concentration of morelloflavone", "setting": "[2]", "result": "1370 nM and 1400 nM"}, {"measurement": "Body weight", "setting": "[3]; 1 month", "result": "22.6 ± 1.5", "unit": "gm"}, {"measurement": "Body weight", "setting": "[3]; 2 months", "result": "24.0 ± 1.6", "unit": "gm"}, {"measurement": "Body weight", "setting": "[3]; 3 months", "result": "25.4 ± 1.5", "unit": "gm"}, {"measurement": "Body weight", "setting": "[3]; 4 months", "result": "26.2 ± 1.5", "unit": "gm"}, {"measurement": "Body weight", "setting": "[3]; 5 months", "result": "26.8 ± 1.3", "unit": "gm"}, {"measurement": "Body weight", "setting": "[3]; 6 months", "result": "27.5 ± 1.7", "unit": "gm"}, {"measurement": "Body weight", "setting": "[3]; 7 months", "result": "28.2 ± 2.5", "unit": "gm"}, {"measurement": "Body weight", "setting": "[3]; Final (8 months)", "result": "28.4±2.3", "unit": "gm"}, {"measurement": "Body weight", "setting": "[3]; Final (8 months), listed as Morelloflavone", "result": "28.4 ± 2.3", "unit": "gm"}, {"measurement": "Body weight", "setting": "[3]; Initial (0 month), Ldlr−/−Apobec1−/− mice, N = 12", "result": "22.3 ± 1.4", "unit": "gm"}, {"measurement": "effect on vascular smooth muscle cell migration/invasion towards SMGS", "setting": "[4]", "result": "significantly blocked; also recorded: blocks"}, {"measurement": "activation of Rac1", "setting": "[5]", "result": "no significant effect; also recorded: without affecting"}]}]}
